Measurements as given in ChEMBL document CHEMBL5291721, “A preclinical secondary pharmacology resource illuminates target-adverse drug reaction associations of marketed drugs” (Nat Commun, 2023).

Assays:
[1] = molecular target: T1, Muscarinic acetylcholine receptor M1 (Homo sapiens, UniProt P11229); assay type: functional
T1 sequence (P11229 whole entry): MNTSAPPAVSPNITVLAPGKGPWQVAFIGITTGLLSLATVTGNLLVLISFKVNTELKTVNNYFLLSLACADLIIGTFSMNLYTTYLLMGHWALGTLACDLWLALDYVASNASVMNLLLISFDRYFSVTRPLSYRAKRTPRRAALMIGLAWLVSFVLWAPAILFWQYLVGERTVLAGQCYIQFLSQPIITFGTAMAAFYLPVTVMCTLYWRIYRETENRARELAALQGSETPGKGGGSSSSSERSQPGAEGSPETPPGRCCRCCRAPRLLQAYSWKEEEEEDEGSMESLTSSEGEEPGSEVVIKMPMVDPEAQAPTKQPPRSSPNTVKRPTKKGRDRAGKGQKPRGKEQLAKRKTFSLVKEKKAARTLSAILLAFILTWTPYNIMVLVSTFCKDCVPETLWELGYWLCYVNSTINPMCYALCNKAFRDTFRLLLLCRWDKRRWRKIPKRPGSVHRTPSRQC

[2] = molecular target: T2, Alpha-1A adrenergic receptor (Homo sapiens, UniProt P35348); assay type: functional, cell-based
T2 sequence (P35348 whole entry): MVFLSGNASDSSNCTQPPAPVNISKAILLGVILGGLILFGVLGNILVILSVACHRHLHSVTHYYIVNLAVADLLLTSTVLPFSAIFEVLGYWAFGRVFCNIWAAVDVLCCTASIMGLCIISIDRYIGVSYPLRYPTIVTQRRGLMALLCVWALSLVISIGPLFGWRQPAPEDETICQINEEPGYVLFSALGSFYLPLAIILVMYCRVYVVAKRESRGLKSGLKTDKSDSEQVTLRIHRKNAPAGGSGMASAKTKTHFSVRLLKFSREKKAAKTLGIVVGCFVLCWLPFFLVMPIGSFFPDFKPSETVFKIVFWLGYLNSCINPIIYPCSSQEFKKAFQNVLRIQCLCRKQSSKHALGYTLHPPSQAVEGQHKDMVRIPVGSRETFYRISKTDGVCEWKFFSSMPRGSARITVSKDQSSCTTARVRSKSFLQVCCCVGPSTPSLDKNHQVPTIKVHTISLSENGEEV

[3] = molecular target: 5-hydroxytryptamine receptor 2B (Homo sapiens, UniProt P41595); assay type: functional, cell-based
5-hydroxytryptamine receptor 2B, sequence (P41595 whole entry): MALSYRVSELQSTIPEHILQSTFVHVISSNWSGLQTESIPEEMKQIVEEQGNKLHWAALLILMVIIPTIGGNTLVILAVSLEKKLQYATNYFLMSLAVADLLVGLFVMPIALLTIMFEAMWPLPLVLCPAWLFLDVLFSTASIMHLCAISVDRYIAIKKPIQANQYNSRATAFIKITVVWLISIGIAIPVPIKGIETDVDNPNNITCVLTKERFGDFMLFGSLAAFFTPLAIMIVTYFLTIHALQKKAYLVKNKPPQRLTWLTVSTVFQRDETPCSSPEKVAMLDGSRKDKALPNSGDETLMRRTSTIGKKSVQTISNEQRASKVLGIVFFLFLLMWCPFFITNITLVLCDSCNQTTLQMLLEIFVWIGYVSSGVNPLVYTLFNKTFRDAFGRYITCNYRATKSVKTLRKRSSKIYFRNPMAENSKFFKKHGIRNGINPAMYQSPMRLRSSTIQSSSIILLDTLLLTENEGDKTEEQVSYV

[4] = molecular target: T3, Alpha-2A adrenergic receptor (Homo sapiens, UniProt P08913); assay type: functional, cell-based
T3 sequence (P08913 whole entry): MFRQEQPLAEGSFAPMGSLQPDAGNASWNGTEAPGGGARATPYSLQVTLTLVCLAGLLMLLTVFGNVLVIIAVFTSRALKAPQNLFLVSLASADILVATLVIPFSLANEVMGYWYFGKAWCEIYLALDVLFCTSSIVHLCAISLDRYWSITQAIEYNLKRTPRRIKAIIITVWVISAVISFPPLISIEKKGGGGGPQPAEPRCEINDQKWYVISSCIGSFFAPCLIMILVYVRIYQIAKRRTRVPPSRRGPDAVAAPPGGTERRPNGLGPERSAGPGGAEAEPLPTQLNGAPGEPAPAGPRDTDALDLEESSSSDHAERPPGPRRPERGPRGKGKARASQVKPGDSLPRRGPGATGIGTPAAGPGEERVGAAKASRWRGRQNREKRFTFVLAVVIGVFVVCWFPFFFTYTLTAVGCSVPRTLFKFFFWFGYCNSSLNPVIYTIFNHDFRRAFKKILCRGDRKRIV

Vasopressin V2 receptor = Vasopressin V2 receptor (Homo sapiens, UniProt P30518)
Vasopressin V2 receptor, sequence (P30518 whole entry): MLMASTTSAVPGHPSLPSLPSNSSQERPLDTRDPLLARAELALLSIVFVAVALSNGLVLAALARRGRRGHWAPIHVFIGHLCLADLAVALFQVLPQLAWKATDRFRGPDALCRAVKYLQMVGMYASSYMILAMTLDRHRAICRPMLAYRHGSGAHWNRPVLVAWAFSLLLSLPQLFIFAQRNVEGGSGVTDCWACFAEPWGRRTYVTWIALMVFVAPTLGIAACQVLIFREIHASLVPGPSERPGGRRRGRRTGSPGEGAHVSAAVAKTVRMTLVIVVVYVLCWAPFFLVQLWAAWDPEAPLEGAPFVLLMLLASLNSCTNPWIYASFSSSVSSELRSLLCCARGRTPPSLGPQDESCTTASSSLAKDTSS

Vasopressin V1a receptor = Vasopressin V1a receptor (Homo sapiens, UniProt P37288)
Vasopressin V1a receptor, sequence (P37288 whole entry): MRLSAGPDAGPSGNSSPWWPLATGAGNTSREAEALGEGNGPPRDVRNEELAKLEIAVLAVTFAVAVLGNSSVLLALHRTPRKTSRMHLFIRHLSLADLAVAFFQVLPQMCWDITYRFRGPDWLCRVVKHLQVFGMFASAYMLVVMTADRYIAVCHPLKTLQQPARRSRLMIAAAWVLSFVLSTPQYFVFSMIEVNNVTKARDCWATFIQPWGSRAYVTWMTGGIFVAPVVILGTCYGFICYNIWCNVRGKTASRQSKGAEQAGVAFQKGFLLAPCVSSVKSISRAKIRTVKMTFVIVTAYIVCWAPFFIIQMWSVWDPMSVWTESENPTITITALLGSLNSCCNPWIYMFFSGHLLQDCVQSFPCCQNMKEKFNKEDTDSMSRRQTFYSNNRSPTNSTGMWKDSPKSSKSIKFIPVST

[5] = molecular target: T4, Amine oxidase [flavin-containing] A (Homo sapiens, UniProt P21397); assay type: functional
T4 sequence (P21397 whole entry): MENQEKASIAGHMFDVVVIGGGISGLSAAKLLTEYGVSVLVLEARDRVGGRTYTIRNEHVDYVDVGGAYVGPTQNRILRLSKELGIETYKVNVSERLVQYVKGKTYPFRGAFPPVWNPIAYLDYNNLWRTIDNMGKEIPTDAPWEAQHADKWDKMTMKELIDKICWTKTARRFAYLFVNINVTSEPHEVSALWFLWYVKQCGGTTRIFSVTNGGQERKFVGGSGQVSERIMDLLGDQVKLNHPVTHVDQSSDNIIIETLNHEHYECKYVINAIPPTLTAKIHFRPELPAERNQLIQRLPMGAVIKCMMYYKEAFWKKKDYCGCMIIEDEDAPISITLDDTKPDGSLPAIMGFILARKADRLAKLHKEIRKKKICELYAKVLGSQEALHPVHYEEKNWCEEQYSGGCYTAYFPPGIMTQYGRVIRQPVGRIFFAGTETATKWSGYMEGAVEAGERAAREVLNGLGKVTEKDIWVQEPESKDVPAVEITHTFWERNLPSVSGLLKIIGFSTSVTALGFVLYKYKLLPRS

[6] = molecular target: Gamma-aminobutyric acid receptor subunit alpha-1 (Rattus norvegicus, UniProt P62813); assay type: functional
Gamma-aminobutyric acid receptor subunit alpha-1, sequence (P62813 whole entry): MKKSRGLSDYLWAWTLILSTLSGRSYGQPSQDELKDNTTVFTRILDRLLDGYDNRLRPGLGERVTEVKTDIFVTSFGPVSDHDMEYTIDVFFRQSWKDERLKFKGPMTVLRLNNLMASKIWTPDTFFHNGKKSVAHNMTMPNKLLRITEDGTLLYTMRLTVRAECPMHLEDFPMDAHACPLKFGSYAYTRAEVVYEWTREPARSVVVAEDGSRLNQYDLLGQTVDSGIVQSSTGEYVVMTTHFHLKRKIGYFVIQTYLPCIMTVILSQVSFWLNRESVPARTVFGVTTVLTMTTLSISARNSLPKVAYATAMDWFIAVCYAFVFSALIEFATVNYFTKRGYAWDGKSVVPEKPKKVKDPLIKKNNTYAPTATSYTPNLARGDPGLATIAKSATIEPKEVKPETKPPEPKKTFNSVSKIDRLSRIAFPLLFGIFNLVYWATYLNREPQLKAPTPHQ

[7] = molecular target: T5, Type-1 angiotensin II receptor (Homo sapiens, UniProt P30556)
T5 sequence (P30556 whole entry): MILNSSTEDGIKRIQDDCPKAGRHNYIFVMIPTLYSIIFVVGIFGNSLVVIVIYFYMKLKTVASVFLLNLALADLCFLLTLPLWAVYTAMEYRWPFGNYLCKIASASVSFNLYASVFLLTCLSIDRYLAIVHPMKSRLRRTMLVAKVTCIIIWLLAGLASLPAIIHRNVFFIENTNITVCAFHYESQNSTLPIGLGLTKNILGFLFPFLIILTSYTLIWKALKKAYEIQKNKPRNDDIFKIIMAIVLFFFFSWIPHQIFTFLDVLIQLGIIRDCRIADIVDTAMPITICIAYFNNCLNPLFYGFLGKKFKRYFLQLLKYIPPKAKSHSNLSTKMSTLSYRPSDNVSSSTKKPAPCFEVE

Histamine H2 receptor = Histamine H2 receptor (Homo sapiens, UniProt P25021); assay type: functional, cell-based
Histamine H2 receptor, sequence (P25021 whole entry): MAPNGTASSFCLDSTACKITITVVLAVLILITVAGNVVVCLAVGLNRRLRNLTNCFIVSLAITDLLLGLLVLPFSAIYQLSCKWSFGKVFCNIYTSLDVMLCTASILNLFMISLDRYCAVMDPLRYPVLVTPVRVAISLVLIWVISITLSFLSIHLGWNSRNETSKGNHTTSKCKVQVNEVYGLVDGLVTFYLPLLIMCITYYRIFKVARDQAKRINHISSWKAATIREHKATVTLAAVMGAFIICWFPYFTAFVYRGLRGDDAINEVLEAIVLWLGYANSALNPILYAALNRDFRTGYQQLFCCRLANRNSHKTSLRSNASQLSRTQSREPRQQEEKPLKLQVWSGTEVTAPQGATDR

[8] = molecular target: Beta-2 adrenergic receptor (Homo sapiens, UniProt P07550)
Beta-2 adrenergic receptor, sequence (P07550 whole entry): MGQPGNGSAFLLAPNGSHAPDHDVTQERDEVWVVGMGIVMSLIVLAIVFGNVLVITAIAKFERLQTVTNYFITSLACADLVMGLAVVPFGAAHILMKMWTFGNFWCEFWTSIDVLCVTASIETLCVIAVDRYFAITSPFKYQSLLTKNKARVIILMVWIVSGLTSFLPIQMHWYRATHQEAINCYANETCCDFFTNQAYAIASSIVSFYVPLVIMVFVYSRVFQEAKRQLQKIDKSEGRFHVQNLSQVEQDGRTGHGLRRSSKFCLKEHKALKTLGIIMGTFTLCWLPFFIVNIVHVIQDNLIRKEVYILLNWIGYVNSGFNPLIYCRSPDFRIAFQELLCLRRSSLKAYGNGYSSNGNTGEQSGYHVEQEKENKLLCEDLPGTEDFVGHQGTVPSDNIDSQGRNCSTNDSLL
Further: assay procedure not described here.

| Compound | AC50 [1] | AC50 [2] | AC50 [3] | AC50 [4] | AC50 (Vasopressin V2 receptor) | AC50 (Vasopressin V1a receptor) | AC50 [5] | AC50 [6] | AC50 [7] | AC50 (Histamine H2 receptor) | AC50 [8] |
| --- | --- | --- | --- | --- | --- | --- | --- | --- | --- | --- | --- |
| C=C[C@@]1(C)CC(=O)[C@]2(O)[C@@]3(C)[C@@H](O)CCC(C)(C)[C@@H]3[C@H](OC(=O)CCN(C)C)[C@H](OC(C)=O)[C@@]2(C)O1 | > 30 µM | 8.3 µM | > 30 µM | > 30 µM | > 30 µM | > 30 µM | > 30 µM | > 30 µM | > 30 µM | – | – |
| Nc1ccc(C(=O)O)c(O)c1 [AMINOSALICYLIC ACID] | – | > 30 µM | > 30 µM | > 30 µM | > 30 µM | – | > 30 µM | > 30 µM | > 30 µM | > 30 µM | – |
| COc1cc(OC)c(C(=O)CCCN2CCCC2)c(OC)c1 [BUFLOMEDIL] | – | > 30 µM | > 30 µM | > 30 µM | > 30 µM | – | > 30 µM | > 30 µM | > 30 µM | > 30 µM | > 30 µM |
| CS(=O)(=O)OCCCCOS(C)(=O)=O [BUSULFAN] | – | > 30 µM | > 30 µM | > 30 µM | > 30 µM | – | > 30 µM | > 30 µM | > 30 µM | > 30 µM | – |
| CCCCC1(CC)C(=O)NC(=O)NC1=O [BUTETHAL] | > 30 µM | > 30 µM | > 30 µM | > 30 µM | > 30 µM | > 30 µM | > 30 µM | > 30 µM | > 30 µM | > 30 µM | – |
| C=CC1=C(C(=O)O)N2C(=O)[C@@H](NC(=O)/C(=N\OCC(=O)O)c3csc(N)n3)[C@H]2SC1 [CEFIXIME] | > 30 µM | > 30 µM | > 30 µM | > 30 µM | > 30 µM | > 30 µM | > 30 µM | – | > 30 µM | > 30 µM | – |
| CO[C@@]1(NC(=O)Cc2cccs2)C(=O)N2C(C(=O)O)=C(COC(N)=O)CS[C@@H]21 [CEFOXITIN] | > 30 µM | > 30 µM | > 30 µM | > 30 µM | > 30 µM | > 30 µM | > 30 µM | > 30 µM | > 30 µM | > 30 µM | – |
| CCN(CC)CCOC(=O)c1ccc(N)cc1Cl [CHLOROPROCAINE] | > 30 µM | > 30 µM | > 30 µM | > 30 µM | > 30 µM | > 30 µM | 7.9 µM | > 30 µM | > 30 µM | > 30 µM | – |
| COCCOC(=O)C1=C(C)NC(C)=C(C(=O)OC/C=C/c2ccccc2)C1c1cccc([N+](=O)[O-])c1 (stereo not drawn) [CILNIDIPINE] | > 30 µM | > 30 µM | > 30 µM | > 30 µM | > 30 µM | > 30 µM | > 30 µM | > 30 µM | > 30 µM | > 30 µM | – |
| C[C@@H]1C[C@H]2[C@@H]3C[C@H](F)C4=CC(=O)C=C[C@]4(C)[C@@]3(F)[C@@H](O)C[C@]2(C)[C@H]1C(=O)CO [DIFLUCORTOLONE] | > 30 µM | – | > 30 µM | – | – | – | > 30 µM | – | – | – | – |
| O=C(O)c1ccccc1OP(=O)(O)O [FOSFOSAL] | > 30 µM | > 30 µM | > 30 µM | > 30 µM | > 30 µM | > 30 µM | > 30 µM | > 30 µM | > 30 µM | > 30 µM | – |
| CC1(C)C(/C=C/C=C/C=C/C=C2\N(CCCCS(=O)(=O)O)c3ccc4ccccc4c3C2(C)C)=[N+](CCCCS(=O)(=O)[O-])c2ccc3ccccc3c21 [INDOCYANINE GREEN ACID FORM] | 9.2 µM | > 30 µM | – | > 30 µM | > 30 µM | 7.7 µM | > 30 µM | 18 µM | 9 µM | 24 µM | – |
| Nc1nc2c(c(=O)[nH]1)N(C=O)C(CNc1ccc(C(=O)N[C@@H](CCC(=O)O)C(=O)O)cc1)CN2 (stereo partly drawn) [LEUCOVORIN] | – | > 30 µM | > 30 µM | > 30 µM | > 30 µM | – | > 30 µM | > 30 µM | > 30 µM | > 30 µM | > 30 µM |
| CCCC[C@H](C)C[C@H](O)/C=C/[C@H]1[C@H](O)CC(=O)[C@@H]1CCCC/C=C/C(=O)O [LIMAPROST] | > 30 µM | > 30 µM | > 30 µM | > 30 µM | > 30 µM | > 30 µM | > 30 µM | – | > 30 µM | > 30 µM | – |
| CCn1cc(C(=O)O)c(=O)c2cc(F)c(N3CCN(C)CC3)cc21 [PEFLOXACIN] | – | > 30 µM | > 30 µM | > 30 µM | > 30 µM | – | > 30 µM | > 30 µM | > 30 µM | > 30 µM | – |
| C[n+]1ccccc1/C=N/O [PRALIDOXIME] | – | > 30 µM | > 30 µM | > 30 µM | – | – | > 30 µM | > 30 µM | – | > 30 µM | – |
| CCCNC(C)C(=O)Nc1ccccc1C (stereo not drawn) [PRILOCAINE] | – | > 30 µM | > 30 µM | > 30 µM | > 30 µM | – | > 30 µM | > 30 µM | > 30 µM | > 30 µM | – |
| CC(C)(C)NC[C@H](O)COc1nsnc1N1CCOCC1 [TIMOLOL] | – | > 30 µM | > 30 µM | > 30 µM | > 30 µM | – | > 30 µM | > 30 µM | > 30 µM | > 30 µM | – |
| CN1[C@@H]2CC[C@H]1C[C@@H](OC(=O)c1c[nH]c3ccccc13)C2 [TROPISETRON] | – | > 30 µM | > 30 µM | > 30 µM | > 30 µM | – | > 30 µM | 0.5 µM | > 30 µM | > 30 µM | – |
| COLISTIN | > 30 µM | > 30 µM | > 30 µM | > 30 µM | – | – | > 30 µM | > 30 µM | – | > 30 µM | – |
